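Following 48 hours of exposure in 96-well plates, responses at five concentrations were used to interpolate endpoints linearly. The concentration for 50% growth inhibition is given as GI50. TGI: concentration producing complete growth inhibition.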
Experiments:
Test in all cases: NCI-60 cell line screen, 48 h
[1] = tested on: IGROV1 ovarian
[2] = tested on: MOLT-4 leukemia
[3] = tested on: PC-3 prostate
[4] = tested on: M14 melanoma
[5] = tested on: HS 578T breast
[6] = tested on: NCI-H460 lung
[7] = tested on: OVCAR-5 ovarian
[8] = tested on: NCI-H23 lung
[9] = tested on: OVCAR-3 ovarian
[10] = tested on: HCT-116 colon
[11] = tested on: SF-295 CNS
[12] = tested on: NCI-H226 lung
[13] = tested on: SK-MEL-5 melanoma
[14] = tested on: CCRF-CEM leukemia
[15] = tested on: EKVX NSCLC
[16] = tested on: HOP-62 NSCLC
[17] = tested on: BT-549 breast
[18] = tested on: TK-10 renal
[19] = tested on: MDA-MB-435
[20] = tested on: HCT-15 colon
[21] = tested on: A498 renal
[22] = tested on: SN12C renal
[23] = tested on: A549 NSCLC
[24] = tested on: NCI/ADR-RES ovarian
[25] = tested on: MCF7 breast
[26] = tested on: UACC-257 melanoma
[27] = tested on: OVCAR-4 ovarian
[28] = tested on: RXF 393 renal
[29] = tested on: SF-539 CNS

CC(=C(c1ccc(OCCN(C)C)cc1)c1ccc(OCCN(C)C)cc1)c1ccc(Cl)cc1
GI50 [1]: 0.826 µM
TGI [1]: 2.22 µM
GI50 [2]: 0.713 µM
TGI [2]: 1.81 µM
GI50 [3]: 0.932 µM
TGI [3]: 3.26 µM
GI50 [4]: 0.614 µM
TGI [4]: 1.24 µM
GI50 [5]: 1.37 µM
TGI [5]: 5.14 µM
GI50 [6]: 0.756 µM
TGI [6]: 1.76 µM
GI50 [7]: 1.34 µM
TGI [7]: 5.26 µM
GI50 [8]: 2.6 µM
TGI [8]: 7.17 µM
GI50 [9]: 0.756 µM
TGI [9]: 2.01 µM
GI50 [10]: 0.544 µM
TGI [10]: 1.11 µM
GI50 [11]: 0.653 µM
TGI [11]: 1.38 µM
GI50 [12]: 4.44 µM
TGI [12]: 10 µM
GI50 [13]: 0.597 µM
TGI [13]: 1.09 µM
GI50 [14]: 0.657 µM
TGI [14]: 1.84 µM
GI50 [15]: 1.66 µM
TGI [15]: 6.11 µM
GI50 [16]: 3.3 µM
TGI [16]: 8.16 µM
GI50 [17]: 3.17 µM
TGI [17]: 7.78 µM
GI50 [18]: 4.77 µM
TGI [18]: 9.68 µM
GI50 [19]: 0.577 µM
TGI [19]: 1.12 µM
GI50 [20]: 0.625 µM
TGI [20]: 1.36 µM
GI50 [21]: 3.2 µM
TGI [21]: 7.81 µM
GI50 [22]: 1.92 µM
TGI [22]: 5.74 µM
GI50 [23]: 1.04 µM
TGI [23]: 4.14 µM
GI50 [24]: 0.951 µM
TGI [24]: 2.95 µM
GI50 [25]: 0.508 µM
TGI [25]: 1.02 µM
GI50 [26]: 0.632 µM
TGI [26]: 1.27 µM
GI50 [27]: 1.01 µM
TGI [27]: 3.1 µM
GI50 [28]: 0.706 µM
TGI [28]: 2.08 µM
GI50 [29]: 0.566 µM
TGI [29]: 1.1 µM

Reference: PubChem BioAssay (NCI)
